We go through one compound from US20020146679A1, “Method for creating endothelial cell dysfunction in cell culture” (priority 2001, published 2002).

The test system of assay [1] is EA hy926 endothelial cells. Description: Tube formation assay on MATRIGEL (in vitro angiogenesis). Type of assay: cell-based, human. To be noted: SNAP 200 μM co-incubated with TNFα 10 ng/mL for 6 days prior to plating on MATRIGEL
Here is the method:
According to an aspect of the invention, EA hy926 (EA) cells are initially grown in standard endothelial cell culture medium consisting of MCDB 131 (Clonetics Corp.) supplemented with 10 fetal bovine serum (FBS) (Hyclone laboratories), 100 U/mL penicillin/streptomycin, 50 μg/mL gentamicin, and other endothelial growth supplements (EGM bullet kit, Clonetics Corp.). […] Cells were grown in these conditions for 6 to 7 days. EA cells are then dispersed by trypsinization, counted, suspended in EGM media containing […], and plated onto the surface of a MATRIGEL® basement membrane protein matrix (0.5 mL/well, dispensed into 24-well tissue culture plates according to the manufacturer's instructions) at a density of 5×10^5 cells per well (24 well plate). The cells were then placed in a CO2 incubator at 37° C. and observed over a 16- to 24-hour period for cell differentiation into tube-like structures resembling capillaries. […]
EBM medium and its supplement were purchased from Clonetics. […] EA cells were then dispersed by trypsinization, counted, suspended in EGM media containing 10% FBS, and plated onto the surface of a MATRIGEL® basement membrane matrix (0.5 mL/well, dispensed into 24-well tissue culture plates according to the manufacturer's instructions) at a density of 5×10^5 cells per well (24-well plate). […]

The next assay concerns EA hy926 cells. Description: Western blotting analysis of endothelial marker proteins. The settings on record: SNAP 200 μM co-incubated with TNFα for 6 days. The assay is classed as cell-based, human. The procedure:
The whole cell lysates were generated by suspending cell pellets with protein lysis buffer containing 10 mM Tris.CI (pH 7.6), 1 mM EDTA (pH 8.0), 100 mM NaCI, 1 μg/mL aprotinin, and 100 μg/mL phenylmethylsulfonyl fluoride. The lysates were sonicated for 15 seconds at output control level 4 with Sonifier 450 model manufactured by VWR Scientific products. Fifty microgram lysates protein for each sample was electrophoretically separated in 8% to 16% Tris-Glycine Gel and transferred to a nitrocellulose membrane. The proteins on the membrane were stained with PONCEAS solution to check if the proteins loading and transfer were even. The membranes were separately incubated with 5% dry milk Phosphate-buffered saline (PBS) at room temperature for 2 hours and followed by overnight incubation at 4° C. with fresh 5% dry milk PBS containing primary antibodies at 1:2000 dilution. The peroxidase conjugated secondary antibodies was diluted at 1:4000 dilution with 5% PBS buffer. The incubation with secondary antibody was carried out at room temperature for 1 hour. The membranes were then subject to staining with ECL solution and exposure to films.

For `CC(=O)NC(C(=O)O)C(C)(C)SN=O` (racemic) [SNAP, S-Nitroso-N-acetyl-D, L-penicillamine, reference compound], the “tube formation / protection from TNFα-induced dysfunction” value in assay [1] is on record as “protects cells from TNFα induced dysfunction”. Moreover, in the assay on EA hy926 cells, the PAI-1 protein expression entry was “reduces”, the VCAM-1 protein expression result is recorded as “reduces” and the caveolin-1 protein expression entry was “reduces”.
